Patent US20180325914A1, “INCREASING STORAGE OF VITAMIN A, VITAMIN D AND/OR LIPIDS” (Salk Institute for Biological Studies, priority 2014, published 2018)

System: primary HSCs

Cc1sc2c(c1C)C(c1ccc(Cl)cc1)=N[C@@H](CC(=O)OC(C)(C)C)c1nnc(C)n1-2 [JQ1, (S)-tert-butyl 2-(4-(4-chlorophenyl)-2,3,9-trimethyl-6H-thieno[3,2-f][1,2,4]triazolo[4,3-a][1,4]diazepin-6-yl)acetate]
Ccnb2 value_2 (mRNA-Seq, sample Day_6_JQ1): 22.7753
Ccnf value_2 (mRNA-Seq, sample Day_6_JQ1): 11.7934
Cdc45 value_2 (mRNA-Seq, sample Day_6_JQ1): 7.419
Cdca3 value_2 (mRNA-Seq, sample Day_6_JQ1): 31.4087
Cdk1 value_2 (mRNA-Seq, sample Day_6_JQ1): 28.779
Cdkn2c value_2 (mRNA-Seq, sample Day_6_JQ1): 16.1063
Cend1 value_2 (mRNA-Seq, sample Day_6_JQ1): 7.615
Cenpe value_2 (mRNA-Seq, sample Day_6_JQ1): 9.129
Cenph value_2 (mRNA-Seq, sample Day_6_JQ1): 8.899
Chaf1a value_2 (mRNA-Seq, sample Day_6_JQ1): 16.8473
Ckap2l value_2 (mRNA-Seq, sample Day_6_JQ1): 18.5683
Ckb value_2 (mRNA-Seq, sample Day_6_JQ1): 310.111
Cks1b value_2 (mRNA-Seq, sample Day_6_JQ1): 113.98
Colec11 value_2 (mRNA-Seq, sample Day_6_JQ1): 68.8593
Cpt1c value_2 (mRNA-Seq, sample Day_6_JQ1): 30.5415
Ctnnbip1 value_2 (mRNA-Seq, sample Day_6_JQ1): 14.2922
Cyb5r3 value_2 (mRNA-Seq, sample Day_6_JQ1): 256.005
Cyp1b1 value_2 (mRNA-Seq, sample Day_6_JQ1): 100.635
D2Ertd750e value_2 (mRNA-Seq, sample Day_6_JQ1): 10.3027
Dact3 value_2 (mRNA-Seq, sample Day_6_JQ1): 26.3749
Dag1 value_2 (mRNA-Seq, sample Day_6_JQ1): 162.916
Dcbld2 value_2 (mRNA-Seq, sample Day_6_JQ1): 73.5335
Dcxr value_2 (mRNA-Seq, sample Day_6_JQ1): 36.0469
Ddr2 value_2 (mRNA-Seq, sample Day_6_JQ1): 63.2059
Diap3 value_2 (mRNA-Seq, sample Day_6_JQ1): 10.7413
Dlgap5 value_2 (mRNA-Seq, sample Day_6_JQ1): 10.9428
Dzip3 value_2 (mRNA-Seq, sample Day_6_JQ1): 8.399
E2f1 value_2 (mRNA-Seq, sample Day_6_JQ1): 21.0746
Elovl5 value_2 (mRNA-Seq, sample Day_6_JQ1): 65.5058
Eno2 value_2 (mRNA-Seq, sample Day_6_JQ1): 9.68
Ephb3 value_2 (mRNA-Seq, sample Day_6_JQ1): 16.6667
Ephx1 value_2 (mRNA-Seq, sample Day_6_JQ1): 132.832
Evc value_2 (mRNA-Seq, sample Day_6_JQ1): 10.4125
Ext2 value_2 (mRNA-Seq, sample Day_6_JQ1): 87.8458
Fam171b value_2 (mRNA-Seq, sample Day_6_JQ1): 12.8947
Fbxo5 value_2 (mRNA-Seq, sample Day_6_JQ1): 11.9069
Fignl1 value_2 (mRNA-Seq, sample Day_6_JQ1): 12.5326
Foxm1 value_2 (mRNA-Seq, sample Day_6_JQ1): 15.7609
Fscn1 value_2 (mRNA-Seq, sample Day_6_JQ1): 385.037
Gas1 value_2 (mRNA-Seq, sample Day_6_JQ1): 80.3077
Gmnn value_2 (mRNA-Seq, sample Day_6_JQ1): 19.8433
Gpm6b value_2 (mRNA-Seq, sample Day_6_JQ1): 19.7607
Gpx1 value_2 (mRNA-Seq, sample Day_6_JQ1): 332.885
Gstt3 value_2 (mRNA-Seq, sample Day_6_JQ1): 14.4369
Gyg value_2 (mRNA-Seq, sample Day_6_JQ1): 82.2854
Hadh value_2 (mRNA-Seq, sample Day_6_JQ1): 56.1898
Hand2 value_2 (mRNA-Seq, sample Day_6_JQ1): 110.598
Hmmr value_2 (mRNA-Seq, sample Day_6_JQ1): 17.0843
Id3 value_2 (mRNA-Seq, sample Day_6_JQ1): 1063.75
Ildr2 value_2 (mRNA-Seq, sample Day_6_JQ1): 11.4416
Kif2c value_2 (mRNA-Seq, sample Day_6_JQ1): 11.8118
Kif4 value_2 (mRNA-Seq, sample Day_6_JQ1): 7.332
Kif11 value_2 (mRNA-Seq, sample Day_6_JQ1): 10.8132
Kif20b value_2 (mRNA-Seq, sample Day_6_JQ1): 7.299
Kif22 value_2 (mRNA-Seq, sample Day_6_JQ1): 14.9542
Lamb2 value_2 (mRNA-Seq, sample Day_6_JQ1): 41.1365
Lhfp value_2 (mRNA-Seq, sample Day_6_JQ1): 371.966
Lphn1 value_2 (mRNA-Seq, sample Day_6_JQ1): 20.1469
Melk value_2 (mRNA-Seq, sample Day_6_JQ1): 7.467
Mfge8 value_2 (mRNA-Seq, sample Day_6_JQ1): 379.144
Mki67 value_2 (mRNA-Seq, sample Day_6_JQ1): 27.8603
Mmp11 value_2 (mRNA-Seq, sample Day_6_JQ1): 36.1215
Mras value_2 (mRNA-Seq, sample Day_6_JQ1): 15.4481
Mrc2 value_2 (mRNA-Seq, sample Day_6_JQ1): 111.626
Msx1 value_2 (mRNA-Seq, sample Day_6_JQ1): 5.962
Ndc80 value_2 (mRNA-Seq, sample Day_6_JQ1): 8.604
Nkd1 value_2 (mRNA-Seq, sample Day_6_JQ1): 16.9471
Nuf2 value_2 (mRNA-Seq, sample Day_6_JQ1): 9.227
Oat value_2 (mRNA-Seq, sample Day_6_JQ1): 213.454
Osbpl5 value_2 (mRNA-Seq, sample Day_6_JQ1): 41.3593
Osr1 value_2 (mRNA-Seq, sample Day_6_JQ1): 16.6329
Pbx1 value_2 (mRNA-Seq, sample Day_6_JQ1): 48.4716
Pld3 value_2 (mRNA-Seq, sample Day_6_JQ1): 190.597
Plxdc2 value_2 (mRNA-Seq, sample Day_6_JQ1): 26.1768
Prc1 value_2 (mRNA-Seq, sample Day_6_JQ1): 30.6759
Ptgr1 value_2 (mRNA-Seq, sample Day_6_JQ1): 25.0296
Pxmp4 value_2 (mRNA-Seq, sample Day_6_JQ1): 17.7124
Pygb value_2 (mRNA-Seq, sample Day_6_JQ1): 42.1403
Racgap1 value_2 (mRNA-Seq, sample Day_6_JQ1): 22.85
Rarb value_2 (mRNA-Seq, sample Day_6_JQ1): 70.6683
S100a6 value_2 (mRNA-Seq, sample Day_6_JQ1): 1608.42
Scrn1 value_2 (mRNA-Seq, sample Day_6_JQ1): 7.911
Sipa1l1 value_2 (mRNA-Seq, sample Day_6_JQ1): 28.6555
Slit2 value_2 (mRNA-Seq, sample Day_6_JQ1): 14.8622
Smc2 value_2 (mRNA-Seq, sample Day_6_JQ1): 19.557
Smc4 value_2 (mRNA-Seq, sample Day_6_JQ1): 33.8803
Snap47 value_2 (mRNA-Seq, sample Day_6_JQ1): 103.523
Spc24 value_2 (mRNA-Seq, sample Day_6_JQ1): 8.494
Spry1 value_2 (mRNA-Seq, sample Day_6_JQ1): 44.5222
St5 value_2 (mRNA-Seq, sample Day_6_JQ1): 35.2195
Tacc3 value_2 (mRNA-Seq, sample Day_6_JQ1): 18.1794
Tfdp2 value_2 (mRNA-Seq, sample Day_6_JQ1): 10.5854
Tinagl1 value_2 (mRNA-Seq, sample Day_6_JQ1): 326.013
Tmem53 value_2 (mRNA-Seq, sample Day_6_JQ1): 17.4035
Tmsb10 value_2 (mRNA-Seq, sample Day_6_JQ1): 1117.74
Trim59 value_2 (mRNA-Seq, sample Day_6_JQ1): 27.2401
Tro value_2 (mRNA-Seq, sample Day_6_JQ1): 7.307
Trp53inp2 value_2 (mRNA-Seq, sample Day_6_JQ1): 99.8045
Twist1 value_2 (mRNA-Seq, sample Day_6_JQ1): 19.9784
Uhrf1 value_2 (mRNA-Seq, sample Day_6_JQ1): 16.7743
Vgll3 value_2 (mRNA-Seq, sample Day_6_JQ1): 95.3643
Wdr35 value_2 (mRNA-Seq, sample Day_6_JQ1): 9.874
Wt1 value_2 (mRNA-Seq, sample Day_6_JQ1): 29.0084
Zbtb7c value_2 (mRNA-Seq, sample Day_6_JQ1): 7.895
number of genes upregulated during HSC activation (more than 900) that are suppressed (primary HSCs, days 3 and 6 vs day 1, JQ1 500 nM): more than 400 genes
induction of key marker genes Col1a1, Acta2, Col1a2 and Des during HSC activation (primary HSCs, JQ1 500 nM, mRNA-Seq and qRT-PCR): drastically abolished
